Consider 11 molecules from ChEMBL document CHEMBL4130381, “Puromycin based inhibitors of aminopeptidases for the potential treatment of hematologic malignancies” (Eur J Med Chem, 2017).

Some results are limits rather than exact numbers.

By CC50 is commonly meant the concentration giving 50% cytotoxicity. Usually inhibition stands for the share of the control response that was lost under treatment. As usually defined, the EC50 is the midpoint of the concentration-response curve. As a reminder, the IC50 is the concentration that inhibits the measured activity by half.

A short description of data set [1]: Cytotoxicity against African green monkey Vero cells assessed as reduction in cell proliferation after 72 hrs by MTT assay. The format is cell-based. As to conditions: chlorocebus sabaeus. A general note: Tetrazolium assays rely on reduction of a dye to a coloured formazan, in cell work by metabolically active cells.
For data set [2], the system named is GFP protein synthesis. Description: Toxicity in human HeLa cells expressing pCFE-GFP assessed as inhibition of GFP proetin synthesis at 10 uM incubated for 30 mins measured for 2 hrs by spectrophotometric method relative to control. The format is cell-based.
Another data set has as its system HL-60. The data set is described as follows: cells. Conditions: Homo sapiens, HL-60, 72 h.
For the next data set, the system named is MOLT-4. The data set is described as follows: cells. Conditions: Homo sapiens, MOLT-4, 72 h.
The test system of data set [3] is GFP protein synthesis. Description: Toxicity in human HeLa cells expressing pCFE-GFP assessed as inhibition of GFP proetin synthesis at 25 uM incubated for 30 mins measured for 2 hrs by spectrophotometric method relative to control. The format is cell-based.
The target of data set [4] is Puromycin-sensitive aminopeptidase (Homo sapiens, UniProt P55786). The data set is described as follows: Inhibition of recombinant human N-terminal His6-MBP-tagged PSA expressed in Escherichia coli BL21 STAR (DE3) using 4-Ala-MNA as substrate measured for 30 mins by thefluorescence assay.
Sequence of Puromycin-sensitive aminopeptidase (P55786 whole entry): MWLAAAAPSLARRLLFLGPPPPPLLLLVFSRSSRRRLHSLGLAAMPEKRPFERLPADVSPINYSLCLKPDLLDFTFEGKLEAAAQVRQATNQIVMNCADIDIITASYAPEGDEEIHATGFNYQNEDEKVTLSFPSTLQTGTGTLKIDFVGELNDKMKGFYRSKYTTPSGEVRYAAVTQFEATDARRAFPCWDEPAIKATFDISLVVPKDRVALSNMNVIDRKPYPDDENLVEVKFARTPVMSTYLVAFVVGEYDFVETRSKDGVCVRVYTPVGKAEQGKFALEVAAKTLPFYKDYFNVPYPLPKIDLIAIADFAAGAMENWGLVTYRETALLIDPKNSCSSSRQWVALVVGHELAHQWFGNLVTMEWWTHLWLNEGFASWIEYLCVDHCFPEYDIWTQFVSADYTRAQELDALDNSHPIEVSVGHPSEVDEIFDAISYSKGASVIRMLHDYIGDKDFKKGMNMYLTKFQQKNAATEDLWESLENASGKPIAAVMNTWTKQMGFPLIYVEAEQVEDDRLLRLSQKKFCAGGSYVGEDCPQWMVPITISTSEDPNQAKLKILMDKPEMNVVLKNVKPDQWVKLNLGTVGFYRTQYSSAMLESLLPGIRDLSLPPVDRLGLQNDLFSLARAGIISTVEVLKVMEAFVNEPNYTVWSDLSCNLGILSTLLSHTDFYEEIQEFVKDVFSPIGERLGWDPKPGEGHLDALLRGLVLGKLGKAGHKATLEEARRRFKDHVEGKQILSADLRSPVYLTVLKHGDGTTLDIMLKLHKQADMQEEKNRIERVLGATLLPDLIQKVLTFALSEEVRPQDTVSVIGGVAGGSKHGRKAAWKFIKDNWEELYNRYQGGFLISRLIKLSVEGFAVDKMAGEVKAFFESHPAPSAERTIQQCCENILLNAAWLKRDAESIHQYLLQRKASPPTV
For the next data set, the target named is Aminopeptidase N (Homo sapiens, UniProt P15144). Description: Inhibition of recombinant human C-terminal His10-tagged APN (Lys69 to Lys967 residues) using Ala-AMC as substrate measured for 30 mins by fluorescence assay.
Sequence of Aminopeptidase N (P15144 whole entry): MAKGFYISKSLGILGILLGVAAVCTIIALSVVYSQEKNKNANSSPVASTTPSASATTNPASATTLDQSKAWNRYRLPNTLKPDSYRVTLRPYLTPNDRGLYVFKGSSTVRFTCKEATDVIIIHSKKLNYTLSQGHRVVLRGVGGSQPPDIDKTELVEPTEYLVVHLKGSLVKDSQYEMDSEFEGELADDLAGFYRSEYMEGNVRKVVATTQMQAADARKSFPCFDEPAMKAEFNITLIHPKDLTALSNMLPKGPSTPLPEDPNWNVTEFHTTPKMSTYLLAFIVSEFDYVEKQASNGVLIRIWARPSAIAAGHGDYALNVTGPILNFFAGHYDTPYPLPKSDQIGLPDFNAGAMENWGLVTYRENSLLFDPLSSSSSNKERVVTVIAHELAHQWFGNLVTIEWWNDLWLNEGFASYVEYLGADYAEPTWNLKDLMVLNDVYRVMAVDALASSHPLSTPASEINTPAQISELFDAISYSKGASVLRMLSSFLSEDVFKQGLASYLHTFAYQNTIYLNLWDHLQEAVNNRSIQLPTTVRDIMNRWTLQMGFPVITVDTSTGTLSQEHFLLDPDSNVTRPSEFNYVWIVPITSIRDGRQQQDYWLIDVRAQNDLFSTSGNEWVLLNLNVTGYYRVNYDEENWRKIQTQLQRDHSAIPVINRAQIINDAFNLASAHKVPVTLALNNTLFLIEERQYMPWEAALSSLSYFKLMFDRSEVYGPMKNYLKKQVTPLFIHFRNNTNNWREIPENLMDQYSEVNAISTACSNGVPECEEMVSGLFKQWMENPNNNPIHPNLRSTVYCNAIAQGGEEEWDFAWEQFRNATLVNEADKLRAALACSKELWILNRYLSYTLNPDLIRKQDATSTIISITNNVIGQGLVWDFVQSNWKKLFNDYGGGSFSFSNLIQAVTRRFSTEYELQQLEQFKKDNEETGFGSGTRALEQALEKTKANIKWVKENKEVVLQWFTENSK

Description for HL-60: Antiproliferative activity against human HL60 cells after 72 hrs by MTT assay
Description for MOLT-4: Antiproliferative activity against human MOLT4 cells after 72 hrs by MTT assay

In the case of `CN(C)c1ncnc2c1ncn2[C@@H]1O[C@H](CO)[C@@H](NC(=O)[C@@H](N)CSCc2ccccc2)[C@H]1O`, in data set [1], the CC50 at 72 h turned out to be 0.88 µM. Also, in the data set on GFP protein synthesis [2], the inhibition at 30 min, 10 µM came out at 30%. Besides, the EC50 was determined as 0.19 µM in the data set on HL-60 and 0.18 µM in the data set with MOLT-4. In addition, in the data set with GFP protein synthesis [3], the inhibition at 30 min, 25 µM was 30%.
Regarding `CN(C)c1ncnc2c1ncn2[C@@H]1O[C@H](CO)[C@@H](NC(=O)[C@@H](N)CSC(c2ccccc2)c2ccccc2)[C@H]1O`, in data set [1], the CC50 at 72 h was greater than 100 µM. Further, the half-maximal effective concentration (EC50) with HL-60 is 32 µM; in the data set on MOLT-4 it was 1.3 µM. Further, in the data set on GFP protein synthesis [3], the inhibition at 30 min, 25 µM is 0%.
The matching figures for `CN(C)c1ncnc2c1ncn2[C@@H]1O[C@H](CO)[C@@H](NC(=O)[C@@H](N)Cc2ccccc2)[C@H]1O`: 3.2 µM, 0.41 µM, 0.39 µM and 59%.
The corresponding values for `N[C@@H](CSC(c1ccccc1)c1ccccc1)C(=O)NCCCO` are greater than 100 µM, greater than 100 µM, greater than 100 µM and 0%.
The corresponding values for `CN(C)c1ncnc2c1ncn2[C@@H]1O[C@H](CO)[C@@H](NC(=O)[C@H](N)CSC(c2ccccc2)c2ccccc2)[C@H]1O` are 46 µM, 34 µM, 11 µM and 0%.
Regarding `CN(C)c1ncnc2c1ncn2[C@@H]1O[C@H](CO)[C@@H](NC(=O)[C@@H](N)CSC(c2ccccc2)(c2ccccc2)c2ccccc2)[C@H]1O`, in data set [1], the CC50 at 72 h was greater than 100 µM. In addition, the values for the EC50 in the data set on HL-60 and in the data set on MOLT-4 were greater than 100 µM and 31 µM, respectively. Moreover, the inhibition at 30 min, 25 µM in the data set on GFP protein synthesis [3] is 0%.
Regarding `CN(C)c1ncnc2c1ncn2[C@@H]1O[C@H](CO)[C@@H](NC(=O)[C@H](N)CSC(c2ccccc2)(c2ccccc2)c2ccccc2)[C@H]1O`, the CC50 at 72 h in data set [1] stood at 15 µM. Further, the EC50 in the data set on HL-60 was determined as 10 µM; in the data set with MOLT-4 it was 14 µM. Moreover, the inhibition at 30 min, 25 µM in the data set with GFP protein synthesis [3] was determined as 0%.
Turning to `CN(C)c1ncnc2c1ncn2[C@@H]1O[C@H](CO)[C@@H](NC(=O)[C@H](N)CSCc2ccccc2)[C@H]1O`, the CC50 at 72 h in data set [1] turned out to be 17 µM. The figures for the concentration giving a half-maximal response (EC50) in the data set with HL-60 and in the data set with MOLT-4 were 46 µM and 14 µM, respectively. Besides, the inhibition at 30 min, 25 µM in the data set with GFP protein synthesis [3] came out at 0%.
With `COc1ccc(C[C@H](N)C(=O)N[C@H]2[C@@H](O)[C@H](n3cnc4c(N(C)C)ncnc43)O[C@@H]2CO)cc1` [PUROMYCIN], the CC50 at 72 h in data set [1] turned out to be 2.8 µM. Besides, the IC50 was determined as 9.7 µM in data set [4] and 41 µM on Aminopeptidase N. Also, the EC50 came out at 0.055 µM in the data set with HL-60 and 0.17 µM in the data set with MOLT-4. Moreover, the inhibition at 30 min, 25 µM with GFP protein synthesis [3] was 99%.
On to `CC(C)C[C@@H](C(=O)N[C@H](C(=O)OC1CCCC1)c1ccccc1)[C@H](O)C(=O)NO` [TOSEDOSTAT], for which the CC50 at 72 h in data set [1] came out at 13 µM. Besides, the IC50 in data set [4] stood at 0.26 µM; at Aminopeptidase N, 0.68 µM. Besides, the EC50 with HL-60 was determined as 4.7 µM; in the data set on MOLT-4, 2.1 µM. In addition, the inhibition at 30 min, 25 µM in the data set on GFP protein synthesis [3] amounted to 35%.
Regarding `CC(C)C[C@H](NC(=O)[C@@H](O)[C@H](N)Cc1ccccc1)C(=O)O` [UBENIMEX], the CC50 at 72 h in data set [1] was in the range of 25 to 100 µM. Further, the IC50 in data set [4] is 3.5 µM. Moreover, the EC50 with HL-60 and in the data set with MOLT-4 was greater than 100 µM throughout. In addition, in the data set on GFP protein synthesis [3], the inhibition at 30 min, 25 µM stood at 28%.
